19 molecules from publication PMC8842279, “Exploring Non-orthosteric Interactions with a Series of Potent and Selective A3 Antagonists” (ACS Medicinal Chemistry Letters, 2022) can be followed below.

For data set [1], the target named is T1, hA2A (human A2A adenosine receptor) (Homo sapiens, UniProt P29274).
T1 construct: expressed in transfected cells; host or cells: HeLa
The format is binding. To be noted: human HeLa cells, n = 2.

The target of data set [2] is T2, hA1 (human A1 adenosine receptor) (Homo sapiens, UniProt P30542).
T2 construct: expressed in transfected cells; host or cells: CHO
T2 sequence (P30542 1-326): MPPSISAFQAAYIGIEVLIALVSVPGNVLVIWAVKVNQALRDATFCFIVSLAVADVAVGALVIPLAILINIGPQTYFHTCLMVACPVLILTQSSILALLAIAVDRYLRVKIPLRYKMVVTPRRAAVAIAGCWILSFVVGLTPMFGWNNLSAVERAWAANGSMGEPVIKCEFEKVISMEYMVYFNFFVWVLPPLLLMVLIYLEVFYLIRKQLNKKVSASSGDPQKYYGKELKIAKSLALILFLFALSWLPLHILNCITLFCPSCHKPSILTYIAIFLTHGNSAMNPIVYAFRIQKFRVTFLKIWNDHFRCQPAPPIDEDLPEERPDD
The data set is described as follows: Radioligand binding, displacement of [3H]DPCPX, transfected CHO cells. To be noted: n = 2, read-out: hA1 % displacement of specific binding at 1 μM. The procedure: (§1) Briefly, hARs were expressed in transfected CHO (A1AR), HeLa (A2AAR and A3AR), and HEK-293 (A2BAR) cells. (^3H)-8-Cyclopentyl-1,3-dipropylxanthine ([^3H]DPCPX) for A1AR and [^3H]NECA for A3AR were used as radioligands in the assays. […] Ki values were calculated by fitting the data with nonlinear regression using Prism 2.1 software (GraphPad). […].
(§2) Pharmacology. Binding assays
(§3) The adenosinergic profile (affinity and selectivity) of the 18 novel pyrimidine derivatives (7-10) was evaluated in vitro (four human AR subtypes) using radioligand binding assays. Human adenosine receptors were expressed in transfected CHO (A1AR), HeLa (A2AAR and A3AR) and HEK-293 (A2BAR) cells. (3H)-1,3-Dipropyl-8-cyclopentylxanthine ([3H]DPCPX) for A1AR and [3H]NECA for A3AR were employed as radioligands in the assays. […]
displace specific radioligand binding. Ki values were obtained by fitting the data with nonlinear regression using Prism 2.1 software (GraphPad, San Diego, CA).
Furthermore, for A3AR, fluorescence polarization binding experiments were carried out in a 96-well plate (Corning 3650). D-PBS (Sigma D8537) was used as assay buffer. In each well, 100µg of membranes from Hela-A3 cell line previously prepared in our laboratory (Lot: A006/ 17-01-2020, […]
as standard and non-specific binding determined in presence of R-PIA 10µM (Sigma S739). 75 nM of the fluorescent ligand (CELT-228) was added, and the reaction mixture (Vt = 200µl) was incubated for 30 minutes at RT. The polarized fluorescence signal was read in an Infinite M1000 pro multiplate reader (Tecan 30063849). For validation of fluorescence polarization binding assay […] (hA 3AR Ki […]
representation of the concentration-response curves of the […].
(§4) (1 picture or pasted object on this page, not shown here)
For orientation: Loss of bound radioactivity is the signal in a displacement assay; it reports binding, not function.

The target of data set [3] is T3, hA2B (human A2B adenosine receptor) (Homo sapiens, UniProt P29275).
T3 construct: expressed in transfected cells; host or cells: HEK-293
T3 sequence (P29275 1-332): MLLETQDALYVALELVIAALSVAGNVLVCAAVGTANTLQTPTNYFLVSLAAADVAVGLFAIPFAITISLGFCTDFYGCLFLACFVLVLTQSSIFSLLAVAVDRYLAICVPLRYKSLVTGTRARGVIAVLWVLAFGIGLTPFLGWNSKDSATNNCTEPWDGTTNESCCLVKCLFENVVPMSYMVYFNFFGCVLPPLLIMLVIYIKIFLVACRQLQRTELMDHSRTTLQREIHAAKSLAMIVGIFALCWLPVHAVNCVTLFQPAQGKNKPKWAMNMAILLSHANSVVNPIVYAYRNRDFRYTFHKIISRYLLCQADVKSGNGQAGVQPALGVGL
The data set is described as follows: Radioligand binding, displacement of [3H]DPCPX, transfected HEK-293 cells. To be noted: human HEK-293 cells, n = 2, read-out: hA2B % displacement of specific binding at 1 μM. As for the experimental part:
as §1, §2, §3
displace specific radioligand binding. Ki values were obtained by fitting the data with nonlinear regression using Prism 2.1 software (GraphPad, San Diego, CA). […]
as §4

Usually melting point stands for the temperature, or range, at which the solid turns liquid.

T1 sequence (P29274 whole entry): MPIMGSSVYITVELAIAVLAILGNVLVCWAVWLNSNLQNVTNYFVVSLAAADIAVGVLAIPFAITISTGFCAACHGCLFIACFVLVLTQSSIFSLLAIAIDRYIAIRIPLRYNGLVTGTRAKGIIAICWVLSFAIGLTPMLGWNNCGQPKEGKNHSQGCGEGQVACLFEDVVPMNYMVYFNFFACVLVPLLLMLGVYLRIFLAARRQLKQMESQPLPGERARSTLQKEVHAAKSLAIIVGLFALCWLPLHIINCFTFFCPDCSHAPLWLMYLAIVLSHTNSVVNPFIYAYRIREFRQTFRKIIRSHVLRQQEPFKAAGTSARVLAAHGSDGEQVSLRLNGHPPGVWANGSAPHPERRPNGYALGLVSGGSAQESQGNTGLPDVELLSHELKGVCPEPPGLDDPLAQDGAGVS

In turn, `COc1ccc(-c2cc(NC(=O)CCC(=O)NCC(=O)NC(C)(C)C)nc(-c3ccc(OC)cc3)n2)cc1` [7a] registered a melting point of 176 to 178 °C. Also, in data set [1], the “hA2A % displacement of specific binding at 1 μM” value (“hA2A % displacement” for short) was 3%. Besides, the inhibition at 1 µM in data set [2] came to 10%. Further, in data set [3], the inhibition at 1 µM worked out at 4%.
For `COc1ccc(-c2cc(NC(=O)CCC(=O)NCC(=O)NC3CCCCC3)nc(-c3ccc(OC)cc3)n2)cc1` [7b], in that order: 202 to 204 °C, 9%, 5% and 16%.
`COc1ccc(-c2cc(NC(=O)CCC(=O)NCC(=O)NCc3ccccc3)nc(-c3ccc(OC)cc3)n2)cc1` [7c] registered a melting point of 184 to 186 °C. The “hA2A % displacement” value in data set [1] was determined as 3%. The inhibition at 1 µM in data set [2] is 2%. Also, the inhibition at 1 µM in data set [3] came out at 3%.
In turn, `COc1ccc(-c2cc(NC(=O)CCC(=O)N(C)CC(=O)NC(C)(C)C)nc(-c3ccc(OC)cc3)n2)cc1` [7d] gave a melting point of 136 to 138 °C. Moreover, the “hA2A % displacement” value in data set [1] is recorded as 3%. Further, in data set [2], the inhibition at 1 µM was determined as 32%. Further, the inhibition at 1 µM in data set [3] was 10%.
As to `COc1ccc(-c2cc(NC(=O)CCC(=O)N(C)CC(=O)NC3CCCCC3)nc(-c3ccc(OC)cc3)n2)cc1` [7e], in data set [1], the “hA2A % displacement” value was determined as 11%. Also, the results for the inhibition at 1 µM in data set [2] and in data set [3] were 9% and 1%, respectively.
Turning to `COc1ccc(-c2cc(NC(=O)CCC(=O)N(C)CC(=O)NCc3ccccc3)nc(-c3ccc(OC)cc3)n2)cc1` [7f], in data set [1], the “hA2A % displacement” value stood at 20%. Also, the inhibition at 1 µM in data set [2] is 32%; in data set [3] it was 2%.
In the case of `COc1ccc(-c2cc(NC(=O)COCC(=O)NCC(=O)NC(C)(C)C)nc(-c3ccc(OC)cc3)n2)cc1` [8a], the “hA2A % displacement” value in data set [1] was found to be 9%. The inhibition at 1 µM came to 7% in data set [2] and 3% in data set [3].
`COc1ccc(-c2cc(NC(=O)COCC(=O)NCC(=O)NC3CCCCC3)nc(-c3ccc(OC)cc3)n2)cc1` [8b] showed a melting point of 113 to 115 °C. Also, the “hA2A % displacement” value in data set [1] worked out at 9%. Also, in data set [2], the inhibition at 1 µM worked out at 6%. The inhibition at 1 µM in data set [3] was determined as 3%.
Turning to `COc1ccc(-c2cc(NC(=O)COCC(=O)NCC(=O)NCc3ccccc3)nc(-c3ccc(OC)cc3)n2)cc1` [8c], the melting point is 201 to 203 °C. For the same molecule, the “hA2A % displacement” value in data set [1] is on record as 1%. For the same molecule, in data set [2], the inhibition at 1 µM turned out to be 9%. For the same molecule, the inhibition at 1 µM in data set [3] is 2%.
In turn, `COc1ccc(-c2cc(NC(=O)COCC(=O)N(C)CC(=O)NC(C)(C)C)nc(-c3ccc(OC)cc3)n2)cc1` [8d] gave a melting point of 115 to 117 °C. The “hA2A % displacement” value in data set [1] was determined as 4%. In data set [2], the inhibition at 1 µM came out at 20%. Also, the inhibition at 1 µM in data set [3] came to 2%.
With `COc1ccc(-c2cc(NC(=O)COCC(=O)N(C)CC(=O)NC3CCCCC3)nc(-c3ccc(OC)cc3)n2)cc1` [8e], the melting point lay in the range of 186 to 188 °C. For the same molecule, the “hA2A % displacement” value in data set [1] is recorded as 8%. Also, the inhibition at 1 µM in data set [2] is 13%. For the same molecule, the inhibition at 1 µM in data set [3] was found to be 2%.
Take `COc1ccc(-c2cc(NC(=O)COCC(=O)N(C)CC(=O)NCc3ccccc3)nc(-c3ccc(OC)cc3)n2)cc1` [8f]: the melting point was 166 to 168 °C. The “hA2A % displacement” value in data set [1] was determined as 1%. The inhibition at 1 µM in data set [2] is 6%. Further, the inhibition at 1 µM in data set [3] is 2%.
As for `COc1ccc(-c2cc(NC(=O)CCC(=O)N3CCN(CC(=O)NC(C)(C)C)CC3)nc(-c3ccc(OC)cc3)n2)cc1` [9a], the melting point is 203 to 205 °C. Also, the “hA2A % displacement” value in data set [1] was found to be 4%. The inhibition at 1 µM in data set [2] is 19%. Besides, the inhibition at 1 µM in data set [3] came to 1%.
As for `COc1ccc(-c2cc(NC(=O)CCC(=O)N3CCN(CC(=O)NC4CCCCC4)CC3)nc(-c3ccc(OC)cc3)n2)cc1` [9b], the “hA2A % displacement” value in data set [1] worked out at 1%. Besides, the inhibition at 1 µM was found to be 9% in data set [2] and 1% in data set [3].
The molecule `COc1ccc(-c2cc(NC(=O)CCC(=O)N3CCN(CC(=O)NCc4ccccc4)CC3)nc(-c3ccc(OC)cc3)n2)cc1` [9c] returned a melting point of 194 to 195 °C. The “hA2A % displacement” value in data set [1] was found to be 9%. The inhibition at 1 µM in data set [2] was 6%. In addition, the inhibition at 1 µM in data set [3] is 2%.
The molecule `COc1ccc(-c2cc(NC(=O)COCC(=O)N3CCN(CC(=O)NC(C)(C)C)CC3)nc(-c3ccc(OC)cc3)n2)cc1` [10a] returned a melting point of 106 to 108 °C. In addition, the “hA2A % displacement” value in data set [1] is reported as 36%. The inhibition at 1 µM in data set [2] came to 9%. For the same molecule, the inhibition at 1 µM in data set [3] came out at 3%.
Consider `COc1ccc(-c2cc(NC(=O)COCC(=O)N3CCN(CC(=O)NC4CCCCC4)CC3)nc(-c3ccc(OC)cc3)n2)cc1` [10b], for which, in data set [1], the “hA2A % displacement” value was 3%. The inhibition at 1 µM in data set [2] came out at 11%; in data set [3], 2%.
As for `COc1ccc(-c2cc(NC(=O)COCC(=O)N3CCN(CC(=O)NCc4ccccc4)CC3)nc(-c3ccc(OC)cc3)n2)cc1` [10c], the “hA2A % displacement” value in data set [1] is reported as 7%. For the same molecule, the values for the inhibition at 1 µM in data set [2] and in data set [3] were 2% and 1%, respectively.
Consider `COc1ccc(-c2cc(NC(C)=O)nc(-c3ccc(OC)cc3)n2)cc1` [ISVY-130, N-(2,6-bis(4-methoxyphenyl)pyrimidin-4-yl)acetamide, reference compound], for which, in data set [1], the “hA2A % displacement” value was 10%. For the same molecule, the inhibition at 1 µM in data set [2] is 1%; in data set [3], 4%.
